Patent US20260317320A1, “C5AR1 ANTAGONISTS AND USES THEREOF” (Vanqua Bio, Inc., priority 2022, published 2026)
Like-named read-outs stand apart in the source and are kept apart here.

Experiments:
[1] = target: T1, complement C5a receptor 1 (C5aR1) (Homo sapiens, UniProt P21730); experiment: β-arrestin recruitment via C5aR1 activation in live CHO-K1 cells (PathHunter), antagonist mode; format: cell-based
T1 construct: β-galactosidase fragment (PathHunter enzyme complementation); host or cells: CHO-K1 (PathHunter CHO-K1 C5aR1 β-arrestin cell line)
T1 sequence (P21730 1-350): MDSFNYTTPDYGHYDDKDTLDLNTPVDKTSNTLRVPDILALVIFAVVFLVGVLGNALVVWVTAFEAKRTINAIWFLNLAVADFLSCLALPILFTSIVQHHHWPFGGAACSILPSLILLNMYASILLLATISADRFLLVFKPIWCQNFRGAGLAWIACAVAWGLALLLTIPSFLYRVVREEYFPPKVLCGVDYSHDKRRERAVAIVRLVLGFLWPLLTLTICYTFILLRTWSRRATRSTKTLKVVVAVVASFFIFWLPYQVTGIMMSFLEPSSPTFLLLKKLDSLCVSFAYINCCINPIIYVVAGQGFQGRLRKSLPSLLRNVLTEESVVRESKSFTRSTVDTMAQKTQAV
How it was run: (§1)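 Live CHO-K1 cells carry two galactosidase enzyme fragments, one fused to β-arrestin and one to C5aR1, so that β-arrestin recruitment restores enzyme activity. Agonist mode tests compounds alone. Antagonist mode tests them against recombinant hC5a at EC90, and IC50 values are reported in binned ranges.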

[2] = target: T1, complement C5a receptor 1 (C5aR1); experiment: β-arrestin recruitment via C5aR1 activation in live CHO-K1 cells (PathHunter), agonist mode; format: cell-based
How it was run: as §1

[3] = antagonist mode, recombinant hC5a (EC90) as competing natural agonist, live CHO-K1 cells, read-out: [Antagonist] B-arrestin2 recruitment: Average IC50

IC50 [1, 3] [µM]	[Agonist] B-arrestin2 recruitment: Average EC50 (nM) [2]	[Agonist] B-arrestin2 recruitment: Average EC50 (nM) ([2]; at 10 μM)	IC50 [1] [µM]	SMILES
0.5 to 5	Non-Active	–	–	COc1ccnc(F)c1N1CCC(c2cc3nccnc3n(Cc3ccccc3C(F)(F)F)c2=O)CC1 [compound 33, 7-(1-(2-Fluoro-4-methoxypyridin-3-yl)piperidin-4-yl)-5-(2-(trifluoromethyl)benzyl)pyrido[2,3-b]pyrazin-6(5H)-one]
< 0.5	Non-Active	–	–	Cc1cccc(F)c1N1CCC(c2cc3nccnc3n(Cc3cccnc3C(F)(F)F)c2=O)CC1 [compound 13, 7-(1-(2-Fluoro-6-methylphenyl)piperidin-4-yl)-5-((2-(trifluoromethyl)pyridin-3-yl)methyl)pyrido[2,3-b]pyrazin-6(5H)-one]
0.5 to 5	–	Non-Active at 10 μM	–	Cc1cnc2cc([C@H]3CC[C@@H](c4c(C)cccc4F)CC3)c(=O)n(Cc3nccnc3OC(F)F)c2n1 [168A, 5-((3-(Difluoromethoxy)pyrazin-2-yl)methyl)-7-((1s,4s)-4-(2-fluoro-6-methylphenyl)cyclohexyl)-3-methylpyrido[2,3-b]pyrazin-6(5H)-one]
5 to 100	–	Non-Active at 10 μM	–	Cc1cnc2cc(C3CCN(c4ccc5c(cnn5C)c4)CC3)c(=O)n(Cc3ncccc3C(F)(F)F)c2n1 [compound 181, 3-Methyl-7-(1-(1-methyl-1H-indazol-5-yl)piperidin-4-yl)-5-((3-(trifluoromethyl)pyridin-2-yl)methyl)pyrido[2,3-b]pyrazin-6(5H)-one]
0.5 to 5	Non-Active	–	–	Cc1cccc(F)c1N1CCC(c2cc3nccnc3n([C@H]3CCCc4ccccc43)c2=O)CC1 [53b, (S)-7-(1-(2-Fluoro-6-methylphenyl)piperidin-4-yl)-5-(1,2,3,4-tetrahydronaphthalen-1-yl)pyrido[2,3-b]pyrazin-6(5H)-one]
< 0.5	–	Non-Active at 10 μM	–	Cc1cccc(F)c1[C@H]1CC[C@H](c2cc3nc(CC(F)(F)F)cnc3n(Cc3ncccc3C(F)(F)F)c2=O)CC1 [compound 228, 7-((1r,4r)-4-(2-Fluoro-6-methylphenyl)cyclohexyl)-2-(2,2,2-trifluoroethyl)-5-((3-(trifluoromethyl)pyridin-2-yl)methyl)pyrido[2,3-b]pyrazin-6(5H)-one]
< 0.5	Non-Active	–	–	Cc1cnc2cc(C3CCN(c4c(C)cccc4F)CC3)c(=O)n([C@@H]3CCCc4nccnc43)c2n1 [61b, (R)-7-(1-(2-fluoro-6-methylphenyl)piperidin-4-yl)-3-methyl-5-(5,6,7,8-tetrahydroquinoxalin-5-yl)pyrido[2,3-b]pyrazin-6(5H)-one]
< 0.5	–	Non-Active at 10 μM	–	Cc1ccc2cc([C@H]3CC[C@H](c4c(C)cccc4F)CC3)c(=O)n(Cc3ncccc3C(F)(F)F)c2n1 [compound 183, 3-((1r,4r)-4-(2-Fluoro-6-methylphenyl)cyclohexyl)-7-methyl-1-((3-(trifluoromethyl)pyridin-2-yl)methyl)-1,8-naphthyridin-2(1H)-one]
–	Non-Active	–	5 to 100	Cc1cccc(F)c1N1CCC(c2cc3nccnc3n(Cc3cncc(C(F)(F)F)n3)c2=O)CC1 [compound 30, 7-(1-(2-Fluoro-6-methylphenyl)piperidin-4-yl)-5-((6-(trifluoromethyl)pyrazin-2-yl)methyl)pyrido[2,3-b]pyrazin-6(5H)-one]
5 to 100	–	Non-Active at 10 μM	–	Cc1cnc2cc([C@H]3CC[C@@H](c4c(C)ccnc4F)CC3)c(=O)n(Cc3nccnc3C)c2n1 [135A, 7-((1s,4s)-4-(2-Fluoro-4-methylpyridin-3-yl)cyclohexyl)-3-methyl-5-((3-methylpyrazin-2-yl)methyl)pyrido[2,3-b]pyrazin-6(5H)-one]
